The source of these data is patent US7714014B2, “Targeting GLI proteins in human cancer by small molecules” (The Regents of the University of California, priority 2005, dated 2010).

For one data set, the system named is SW480 (colon cancer). Nature of the data set: Apoptosis analysis (Annexin V FITC, flow cytometry). The format is cell-based, human. Particulars: 3 days. The procedure: (§1) Apoptosis was analyzed by using an Annexin V FITC Apoptosis Detection Kit (Biosource, Camarillo, Calif.), according to the manufacturer's protocol. After treatment with different small molecule compounds at various concentrations for about 3 days, cells were harvested by trypsinization, stained and immediately analyzed by flow cytometry (FACScan; Decton Dickinson, Franklin Lake, N.J.). Early apoptotic cells with exposed phosphatidylserine but intact cell membranes will bind to Annexin V-FITC, but not propidium iodide (PI). Cells in necrotic or late apoptotic stages will be labeled with both Annexin V-FITC and PI. “% apoptotic cells” or “% apoptosis” refers to the combined early and late apoptotic cells.
Flow cytometry was used to examine apoptosis in colon cancer cells after treatment of cells with small molecule compounds of the invention.

Data set [1] can be described thus: Pharmacokinetic analysis in mice (oral administration). It is filed as in vivo, mouse. The procedure: In another pharmacokinetic study, three mice were orally administrated with the small molecule compound FN1-5 at the dose of 30 mg/kg body weight. Then, as described above, plasma was collected from the tail-vein of each mouse and the concentration of FN1-5 in each plasma sample was determined by mass spectroscopy.
Similarly, the pharmacokinetic properties of orally administered small molecule compound FN1-8 were analyzed (FIG. 22B). Comparing the uptake of FN1-8 to FN1-5, the uptake of FN1-5 after oral administration seems to be better, by about 7 fold.

For the next data set, the system named is H358 (NSCLC). Nature of the data set: Apoptosis analysis (Annexin V FITC, flow cytometry). Particulars: 3 days. The format is cell-based, human. Here is the method:
as §1
(§2) Dose titration experiments of small molecule compound FN1-8 was performed using the NSCLC cell lines A549, H358, and H322. A 549, H358, and H322 cells were plated in 6-well plates and incubated with DM SO (control) or 7.5 μM, 10 μM, 15 μM, 20 μM, and 30 μM of FN1-8, respectively, for 3 days. A dramatic and dose-dependent cell killing in these cell lines was observed when FN1-8 was added at 15 μM or more. FN1-8 induced cell killing in A549 and […] at slightly lower concentrations than in H322 cells (data not shown). After 3 days, approximately 28% of the A549 cells and 58% of H358 underwent apoptosis when incubated with 20 μM FN1-8 (Table 3).

Data set [2] deals with NSCLC cell lines A549, H358, and H322. Nature of the data set: Dose titration, cell killing. Particulars: 7.5-30 μM tested, 3 days. The format is cell-based, human. Here is the method:
(§3) Typically, the small molecule compounds of the present invention were dissolved in DMSO at a concentration of 30 mM. The small molecule compounds were then tested under cell culture conditions at different concentrations ranging from 0, 10, 30, 50, to 100 uM. To determine cell survival after treatment, the cells were incubated with the small molecule compounds in 6-well plates for about 3 days. After removal of the cell culture medium, 1-ml of 0.5% crystal violet solution (prepared in 20% ethanol and 20% methanol) was added to stain the cells for 5 min. Then the crystal violet solution was rinsed clean with tap water. Cell survival was estimated based on the density of crystal stained plates.
as §2

In data set [3] the test system is GLI1, GLI2 and GLI/TAFII31 induced transcription in NSCLC A549 cells. Briefly: 6xGLI BS-luciferase reporter assay (GLI / TAFII31 co-expression). The settings on record: for reduction of transcription activity (6xGLI BS-luciferase): 20 μM, 16-20 hours. It is filed as cell-based, human. The procedure: One day before transfection, cells (1×10^5) were plated in 12-well plates with growth medium without antibiotics. When cells reached 80-90% of confluence they were co-transfected using 0.5 μg of each promoter construct in pGL3Basic vector and 0.025 μg pRL-TK Vector (Promega; Madison, Wis.) containing Renilla Luciferase as an internal control for the transformation efficiency. Lipofectamine 2000™ (Invitrogen Life Technologies) was used to mediate transfection for about 6 hours. Then the medium was replaced with fresh medium containing various small molecule compounds at a concentration of 30 μM, and the resulting cells were cultured for an additional 18-24 hours and subjected to luciferase assay. Briefly, cells were lysed in a lysis buffer and Firefly and Renilla Luciferase activities in cells of each well, were measured using Dual-Luciferase Assay System (Promega) and an illuminometer. The measured luciferase activities were normalized to pRL-TK Vector activity and were given relative to the basal activity of empty pGL3-Basic Vector, which was set to unity. The data shown represent mean values (±S.D.). All measurements were performed in triplicate and repeated in at least three independent experiments. The human Wnt-2 promoter-luciferase construct, the human SOCS3 promoter-Luciferase construct and the human Gremlin promoter-luciferase construct were cloned and characterized in the laboratory of Dr. Jablons at the University of California, San Francisco (San Francisco, Calif.; He et al., Biochem Biophy Res Comm, 2003; and unpublished data). The 6GLI-TKO-luciferase construct (containing 6 repeats of consensus GLI DNA binding sequence) was kindly provided by Dr. Matthias Hebrok's laboratory at the University of California, San Francisco (San Francisco, Calif.).
Further, the specificity of the compounds of the present invention in inhibiting GLI activity and to determine whether these compounds block the interaction between GlLI and TAFII31 as described above, was examined. Specifically, in this analysis, an expression construct linking the 6 repeats of GLI-binding sites (6xGLI BS) to a luciferase reporter gene as a surrogate measurement of the GLI-dependent transcription was used to examine the 6xGLI BS-luciferase activity after treatment of NSCLC A549 cells with compound FN1-8. […] This finding again confirmed that both GLI1 and GLI2 specifically bound to the GLI-binding sites and were functionally active in transcription. […] After treatment of the A549 cells for 16-20 hours with 20 μM, FN1-8 both GLI alone and GLI/TAFII31 induced 6xGLI BS-luciferase transcription was reduced.
Background: Reporter assays use an easily measured gene product as a stand-in for the process of interest.

Data set [4] has as its system human glioma cell line U87. Briefly: Cell survival assay (crystal violet). It is filed as cell-based. The settings on record: U87, 50 μM. Here is the method: as §3
The cell-based cytotoxicity assay described herein was used to determine the effect of small molecule compounds FN1-5 and FN1-8 in the human glioma cell line U87. Viability of U87 cells was analyzed after treatment with 30 and 50 μM FN1-5 and 10, 30, and 50 μM FN1-8.

Turning to `O=C(NCCCCCO)C1C(c2ccccc2)=NN(c2ccccc2)C1c1ccccc1` (stereo not shown) [FN1-5, N-(5-Hydroxypentyl)-1,3,5-triphenyl-4,5-dihydro-pyrazole-4-carboxyamide], the “% of apoptotic cells” value in the data set with SW480 (colon cancer) (SW480, 10 μM) turned out to be 10.8%. For the same compound, the “% of apoptotic cells” value with SW480 (colon cancer) (SW480, 100 μM) is 58.6%. Besides, the “uptake of FN1-5 relative to FN1-8” value in data set [1] (oral administration) was “about 7 fold”. For the same compound, in data set [1] (oral, 30 mg/kg), the “time of uptake into plasma” value is given as at most 10 min and the “time within which plasma concentration diminishes” value was at most 24 h.

For `O=C(NCCc1ccc(O)cc1)C1C(c2ccccc2)=NN(c2ccccc2)C1c1ccccc1` (stereo not shown) [FN1-8, N-(2-(4-Hydroxyphenyl)ethyl)-1,3,5-triphenyl-4,5-dihydro-pyrazole-4-carboxyamide], the “% of apoptotic cells” value is recorded as 15.2% in the data set with H358 (NSCLC) (H358, 10 μM) and 58.1% in the data set on H358 (NSCLC) (H358, 20 μM). For the same compound, in data set [2], the “concentration at which dramatic and dose-dependent cell killing was observed” value is at least 15 µM. Further, in data set [3] (A549 (FIG. 16)), the “GLI protein-TAF-induced transcriptional activation” value is on record as “reduces GLI protein-TAF-induced transcriptional activation”. Moreover, the “reduction of transcription activity (6xGLI BS-luciferase)” value in data set [3] (GLI1 cotransfected with TAFII31) is “about 70%”; in data set [3] (GLI2 cotransfected with TAFII31) it was “about 50%”; in data set [3] (GLI alone), “approximately 30%”. Moreover, the cell killing result in data set [4] was “dramatic cell killing”.
